This passage reports activation and EC50 results from patent publication US8293729B2 (Boehringer Ingelheim International GmbH, priority 2009, dated 2012).

Some results are limits rather than exact numbers.

One assay addresses T1, human GPR119 receptor (Homo sapiens, UniProt Q8TDV5, S329A/T327A).
T1 construct: N-terminal leader […]; expressed in transfected cells
T1 sequence (Q8TDV5 with tags, fused parts or gaps T327A/S329A): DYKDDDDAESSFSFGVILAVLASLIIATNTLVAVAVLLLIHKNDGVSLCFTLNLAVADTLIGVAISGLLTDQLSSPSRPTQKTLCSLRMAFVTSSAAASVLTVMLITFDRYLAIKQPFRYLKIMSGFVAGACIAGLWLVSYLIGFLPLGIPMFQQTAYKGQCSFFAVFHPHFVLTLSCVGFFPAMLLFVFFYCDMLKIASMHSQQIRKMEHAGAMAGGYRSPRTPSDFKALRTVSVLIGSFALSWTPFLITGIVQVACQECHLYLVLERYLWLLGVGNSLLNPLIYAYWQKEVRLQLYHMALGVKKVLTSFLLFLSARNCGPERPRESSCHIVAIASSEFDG
Briefly: cAMP assay (LANCE cAMP-384) in HEK293 cells stably expressing mutant human GPR119 receptor. Format: cell-based. The note with it: HEK293, 20 min; at 10 μM; printed in EC50 column of the 36th table; read-out: stimulation in % at 10 μM. As to the method: Quantitative detection of cAMP accumulation from cells expressing human GPR119 receptor was achieved using Perkin Elmer's LANCE cAMP-384 Kit (Cat#AD0264) according to the manufacturer's protocol. Briefly, HEK293 cells stably expressing a mutant form of the human GPR119 receptor (Methionine 1 replaced with the amino acid sequence […] (SEQ ID NO: 1), and T327 & S329 changed to alanines) were grown to 50-70% confluency in cell culture media (DMEM, 10% heat inactivated Fetal Bovine Serum, 50 I.U./mL penicillin, 50 μg/mL streptomycin, 10 mM HEPES, 20 μg/mL G418 Sulfate). On the day of the assay, GPR119 stable HEK293 cells were lifted from the tissue culture plate and 1000 cells/well were incubated along with various concentrations of test compounds for 20 min at 37° C. Detection Buffer (50mM HEPES, 10mM calcium chloride, 0.35% Triton X-100, 1 mg/mL BSA) containing cAMP-specific antibody was then added to all wells and allowed to equilibrate in the dark for 10 minutes at room temperature. Upon equilibration, Detection Buffer containing europium-labeled cAMP tracer complex was added to all wells and allowed to react for 1 hour at room temperature. After 1 hour, bound europium-labeled cAMP tracer was measured using a Perkin Elmer ViewLux. The quantity of cAMP generated in each well was derived from a standard curve. EC50 was determined using nonlinear regression analysis of the cAMP values over a range of agonist concentration (12 points spanning the range from 30 μM to 100pM).
For some compounds for which no EC50 value could be determined, the efficacy is provided at a single concentration (10 μM) yielding % stimulation values.
On to `CS(=O)(=O)c1ccc(N2CCC(=NOC3CCN(Cc4nccs4)CC3)CC2)c(F)c1` [Example 66-6], for which the activation at 10 µM was determined as 63%.
Same read-out and setting: for `CCc1ncc(CN2CCC(ON=C3CCN(c4ccc(S(C)(=O)=O)cc4F)CC3)CC2)cn1` [Example 66-49] the value was 75%.
On the same count and under the same terms, with `COc1ccccc1CN1CCC(ON=C2CCN(c3ccc(S(C)(=O)=O)cc3F)CC2)CC1` [Example 66-18] the figure was 66%.

The same assay, now with this note: cAMP accumulation, HEK293 cells stably expressing mutant human GPR119; read-out: EC50.
For `CC(C)OC(=O)N1CCC(ON=C2CCN(c3cc(F)c(CNCCF)cc3F)CC2)CC1` [Example 5-9], the EC50 was 703 nM.
On to `Cc1ccc(-c2cc(F)c(N3CCC(=NOC4CCN(C(=O)OC(C)C)CC4)CC3)cc2F)s1` [Example 27-23], for which the EC50 was 274 nM.
The same measure, in the same setting: for `COCCN(C)Cc1cc(F)c(N2CCC(=NOC3CCN(C(=O)OC(C)C)CC3)CC2)cc1F` [Example 5-5] the value was greater than 10000 nM.
On the same count and under the same terms, for `CC(C)OC(=O)N1CCC(ON=C2CCN(c3cc(F)c(Cn4cnc5ncccc54)cc3F)CC2)CC1` [Example 14-5] the value was 374 nM; for `CC(C)OC(=O)NCc1cc(F)c(N2CCC(=NOC3CCN(C(=O)OC(C)C)CC3)CC2)cc1F` [Example 16-7], 134 nM; for `Cc1nc(C)c(-c2cc(F)c(N3CCC(=NOC4CCN(C(=O)OC(C)C)CC4)CC3)cc2F)s1` [Example 27-25], greater than 10000 nM.
Still for that read-out and setting: with `CC(C)OC(=O)N1CCC(ON=C2CCN(c3cc(F)c(N4CCCC4=O)cc3F)CC2)CC1` [Example 22-7] the figure was 157 nM; with `CC(C)OC(=O)N1CCC(ON=C2CCN(c3cc(F)c(-c4cn[nH]c4)cc3F)CC2)CC1` [Example 27-10], 177 nM; with `CC(C)OC(=O)N1CCC(ON=C2CCN(c3cc(F)c(-c4nccs4)cc3F)CC2)CC1` [Example 27-18], 137 nM.
`CC(C)OC(=O)N1CCC(ON=C2CCN(c3cnccn3)CC2)CC1` [Example 2-11]: the EC50 was greater than 10000 nM.
With `Cc1nnnn1Cc1cc(F)c(N2CCC(=NOC3CCN(C(=O)OC(C)C)CC3)CC2)cc1F` [Example 14-15], the EC50 was 39 nM.
As to `CC(C)OC(=O)N1CCC(ON=C2CCN(c3nccc(C(F)(F)F)n3)CC2)CC1` [Example 2-66], the EC50 is greater than 10000 nM.
On the same count and under the same terms, for `CC(C)OC(=O)N1CCC(ON=C2CCN(c3ccc(CO)cc3)CC2)CC1` [Example 2-53] the value was greater than 10000 nM; for `CC(C)OC(=O)N1CCC(ON=C2CCN(c3cc(F)c(-c4ncc[nH]4)cc3F)CC2)CC1` [Example 27-22], 54 nM; for `COC(=O)CCNCc1cc(F)c(N2CCC(=NOC3CCN(C(=O)OC(C)C)CC3)CC2)cc1F` [Example 5-7], 1150 nM.
As to `CC(C)OC(=O)N1CCC(ON=C2CCN(c3cc(F)c(CN(C)S(C)(=O)=O)cc3F)CC2)CC1` [Example 18-2], the EC50 turned out to be 150 nM.
With `CC(C)OC(=O)N1CCC(ON=C2CCN(c3ccc4c(c3)CCC4=O)CC2)CC1` [Example 2-38], the EC50 was greater than 10000 nM.
Still for that read-out and setting: for `CC(C)OC(=O)N1CCC(ON=C2CCN(c3nc(F)c(F)cc3F)CC2)CC1` [Example 2-75] the value was 453 nM; for `CNCCNC(=O)c1cc(F)c(N2CCC(=NOC3CCN(C(=O)OC(C)C)CC3)CC2)cc1F` [Example 31-1, 4-{1-[2,5-Difluoro-4-(2-methylamino-ethylcarbamoyl)-phenyl]-piperidin-4-ylideneaminooxy}-piperidine-1-carboxylic acid isopropyl ester], 424 nM; for `CC(C)OC(=O)N1CCC(ON=C2CCN(c3cc(F)c(-c4ccccn4)cc3F)CC2)CC1` [Example 27-27], 159 nM.

The same assay, now with this note: the 15th table; read-out: EC50.
Turning to `CC(C)OC(=O)N1CCC(ON=C2CCN(c3cc(F)c(C(=O)N4CCCC(CN5CCCCC5)C4)cc3F)CC2)CC1` (stereo not shown) [Example 29-56], the EC50 came out at 133 nM.
On the same count and under the same terms, for `CC(C)OC(=O)N1CCC(ON=C2CCN(c3cc(F)c(C(=O)NCCCN)cc3F)CC2)CC1` [Example 29-7] the value was 42 nM.

Still in this assay, the particulars now being: the 19th table; unit inferred; read-out: EC 50.
On to `CCc1cnc(N2CCC(ON=C3CCN(c4cc(F)c(C(=O)NC5CCCNC5)cc4F)CC3)CC2)nc1` (stereo not shown) [Example 29-127], for which the EC50 turned out to be 322 nM.
Still for that read-out and setting: with `CCc1cnc(N2CCC(ON=C3CCN(c4cc(F)c(C(=O)N5CC[C@H](CN)C5)cc4F)CC3)CC2)nc1` [Example 29-120] the figure was 202 nM; with `CCc1cnc(N2CCC(ON=C3CCN(c4cc(F)c(C(=O)NCC5CCNC5)cc4F)CC3)CC2)nc1` (stereo not shown) [Example 29-139], 92 nM.
Same read-out and setting: with `CCc1cnc(N2CCC(ON=C3CCN(c4cc(F)c(C(=O)NCC5CCCN5)cc4F)CC3)CC2)nc1` (stereo not shown) [Example 29-121] the figure was 139 nM.

Still in this assay, the particulars now being: the 30th table; read-out: EC50.
Regarding `CC(C)OC(=O)N1CCC(ON=C2CCN(c3ncc(CS(C)(=O)=O)cc3F)CC2)CC1` [Example 54-7], the EC50 came to 484 nM.

Still in this assay, the particulars now being: the 31st table; read-out: EC50.
Take `CC(C)OC(=O)N1CCC(ON=C2CCCN(c3ccc(S(C)(=O)=O)cc3F)C2)CC1` (mixture of isomers) [Example 61-1, 4-[1-(2-Fluoro-4-methanesulfonyl-phenyl)-piperidin-(3Z)-ylideneaminooxy]-piperidine-1-carboxylic acid isopropyl ester]: the EC50 is greater than 10000 nM.

Staying with this assay, now noted: the 32nd table; read-out: EC50.
For `CS(=O)(=O)c1ccc(N2CCC(=NOC3CCN(c4nccc(Cl)n4)CC3)CC2)c(F)c1` [Example 63-6], the EC50 stood at 1340 nM.
For the molecule `CS(=O)(=O)c1ccc(N2CCC(=NOC3CCN(c4ccc(Cl)cn4)CC3)CC2)c(F)c1` [Example 63-24], the EC50 came out at 977 nM.
As to `Cc1ccnc(N2CCC(ON=C3CCN(c4ccc(S(C)(=O)=O)cc4F)CC3)CC2)n1` [Example 63-16], the EC50 amounted to 765 nM.

Staying with this assay, now noted: the 33rd table; read-out: EC50.
With `CCOCCOC(=O)N1CCC(ON=C2CCN(c3ccc(S(C)(=O)=O)cc3F)CC2)CC1` [Example 64-10], the EC50 came to 1280 nM.
`CS(=O)(=O)c1ccc(N2CCC(=NOC3CCN(C(=O)O[C@H]4CNC(=O)C4)CC3)CC2)c(F)c1` [Example 64-11]: the EC50 was greater than 10000 nM.
On the same count and under the same terms, with `CC(OC(=O)N1CCC(ON=C2CCN(c3ccc(S(C)(=O)=O)cc3F)CC2)CC1)C1CC1` (stereo not shown) [Example 64-5] the figure was 90 nM.

The same assay, now with this note: the 34th table, compounds 65-1 to 65-24; read-out: EC50.
Consider `CS(=O)(=O)c1ccc(N2CCC(=NOC3CCN(C(=O)Oc4ccccc4)CC3)CC2)c(F)c1` [Example 65-12], for which the EC50 amounted to 57 nM.

Staying with this assay, now noted: the 36th table, compounds 66-1 to 66-51; read-out: EC50.
In the case of `CCOc1ccc(CN2CCC(ON=C3CCN(c4ccc(S(C)(=O)=O)cc4F)CC3)CC2)cc1` [Example 66-46], the EC50 is 418 nM.
The same measure, in the same setting: with `CS(=O)(=O)c1ccc(N2CCC(=NOC3CCN(Cc4ncco4)CC3)CC2)c(F)c1` [Example 66-20] the figure was greater than 10000 nM; with `Cn1cccc1CN1CCC(ON=C2CCN(c3ccc(S(C)(=O)=O)cc3F)CC2)CC1` [Example 66-1, 1-(2-Fluoro-4-methanesulfonyl-phenyl)-piperidin-4-one O-[1-(1-methyl-1H-Pyrrol-2-ylmethyl)-piperidin-4-yl]-oxime], greater than 10000 nM.
`CS(=O)(=O)c1ccc(N2CCC(=NOC3CCN(Cc4ccccc4)CC3)CC2)c(F)c1` [Example 66-15]: the EC50 amounted to 982 nM.
The same measure, in the same setting: for `CCc1ccc(CN2CCC(ON=C3CCN(c4ccc(S(C)(=O)=O)cc4F)CC3)CC2)cc1` [Example 66-27] the value was 109 nM; for `COc1ccc(CN2CCC(ON=C3CCN(c4ccc(S(C)(=O)=O)cc4F)CC3)CC2)cc1` [Example 66-45], 6000 nM.

Staying with this assay, now noted: the 37th table, compounds 66-52 to 66-64; read-out: EC50.
In the case of `CCCc1ccc(CN2CCC(ON=C3CCN(c4cc(F)c(S(C)(=O)=O)cc4F)CC3)CC2)cc1` [Example 66-53], the EC50 came out at 35 nM.

Staying with this assay, now noted: the 38th table, compounds 66-65 to 66-72; read-out: EC50.
For `CNC(=O)c1cc(F)c(N2CCC(=NOC3CCN(Cc4ccc(-c5cncnc5)cc4)CC3)CC2)cc1F` [Example 66-69], the EC50 was determined as 2260 nM.

The assay is the same for the next values; noted with them: the 44th table, compounds 77-1 to 77-14; read-out: EC50.
Consider `CCc1cnc(N2CCC(ON=C3CCN(c4cc(F)c(CC(=O)N5CC[C@H](CN)C5)cc4F)CC3)CC2)nc1` [Example 77-9], for which the EC50 came to 8 nM.
Same read-out and setting: with `CCc1cnc(N2CCC(ON=C3CCN(c4cc(F)c(CC(=O)N5CCC(CN(C)C)CC5)cc4F)CC3)CC2)nc1` [Example 77-14] the figure was 6 nM; with `CCc1cnc(N2CCC(ON=C3CCN(c4cc(F)c(CC(=O)N5CC[C@@H](N)C5)cc4F)CC3)CC2)nc1` [Example 77-11], 47 nM.
